Experimental findings from the METLIN SMRT retention time set (Domingo-Almenara et al. 2019) are described below.

The series can be described thus: gradient 5% acetonitrile 3 min, to 50% in 2 min, to 85% in 15 min, held 3 min, 100 µL/min. The following applies: column: Zorbax Extend-C18 2.1 x 50 mm; eluents: water / acetonitrile, 0.1% formic acid. The gist of the method:
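Using water and acetonitrile that each contained 0.1% formic acid, mixtures of ~100 pure standards were separated at 100 μL/min on a Zorbax Extend-C18 column (2.1 × 50 mm, 1.8 μm). The HPLC fed a quadrupole time-of-flight mass spectrometer working in positive and negative ionization mode, with dead and dwell volumes of 40 μL and 900 μL. Data were acquired over 3 months. Retention time was read from computationally picked adduct peaks after manual inspection of each.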
Take `CNC(=O)C1CCN(c2nc3ccc(-c4cccc(OC)c4)nc3s2)CC1`: the RP-LC retention time stood at 801 s.
Take `CC(C)N1CCN(Cc2nc(-c3ccc(N4CCSCC4)nc3)no2)CC1`: the RP-LC retention time is 614 s.
With `Cc1ccn2cc(-c3cccc(S(=O)(=O)N4CCCC4)c3)nc2c1`, the RP-LC retention time was 611 s.
For `O=C(CSc1cc(-n2ccc(C(=O)NC3CC3)n2)ncn1)Nc1ccc2c(c1)OCO2`, the RP-LC retention time stood at 714 s.
Then `CCOC(=O)C1CCN(C(=O)Cn2c(=O)c3cccn3c3ccc(F)cc32)CC1`, with 802 s; and `Cc1ccc(CNC(=O)c2cc3n(n2)CC(C)(C(=O)NCc2ccc(C)cc2)N(C)C3=O)cc1` (stereo unspecified), with 823 s; and `CC1CCc2nn(CC(=O)Nc3ccc(F)cc3F)cc2C1` (stereo unspecified), with 875 s.
With `COc1nn(C)cc1C(=O)Nc1nnc(-c2cc(C)oc2C)o1`, the RP-LC retention time was found to be 666 s.
For the compound `Cc1ccc(F)c2c(=O)c3c([nH]c12)CCN(CC(=O)Nc1cccc(F)c1)C3`, the RP-LC retention time came to 620 s.
The compound `Cc1ccc(OCc2nc(-c3ccc(N4CCSCC4)nc3)no2)cc1` showed an RP-LC retention time of 1180 s.
Consider `Cc1cc(Cl)ccc1NC(=O)c1cn(C)c2ncccc12`, for which the RP-LC retention time was 827 s.
As to `Cc1noc(C)c1Cc1ccc(C(=O)N2CCCC2c2nc(CCOCC3CC3)no2)o1` (stereo unspecified), the RP-LC retention time came out at 825 s.
On to `CC(C)CNC(=O)N1CCC(CCOc2cccnc2)CC1`, for which the RP-LC retention time was found to be 605 s.
`COc1ccccc1CC(=O)NC1CCN(Cc2c(C)noc2C)C1` (stereo unspecified) returned an RP-LC retention time of 584 s.
With `Cc1nn(CC(=O)NCCCN2CCCC2)c(=O)c2nc(-c3ccccc3)sc12`, the RP-LC retention time is 620 s.
Compound `O=C(C1=CN(c2ccccc2F)c2cc(Cl)ccc2S1(=O)=O)N1CCCC1` yielded an RP-LC retention time of 842 s.
Take `CC(C)c1ccc(S(=O)(=O)N2CCC(C)(C(=O)NCc3ccccc3)CC2)cc1`: the RP-LC retention time is 1050 s.
`Cc1ccc(Sc2nccnc2N2CCCC(C(=O)N3CCN(c4ccccn4)CC3)C2)cc1` (stereo unspecified): the RP-LC retention time was found to be 768 s.
As for `CCc1nc2cc(-c3noc(COc4ccc(Cl)cc4)n3)ccc2o1`, the RP-LC retention time was determined as 1170 s.
Consider `Cc1ccc(-c2ccc(N3CCN(c4ccccn4)CC3)nn2)cc1S(=O)(=O)N1CCC(C)CC1`, for which the RP-LC retention time worked out at 743 s.
Take `CCc1nnc2cc(N3CCN(C(=O)Nc4ccccc4Cl)CC3)cnn12`: the RP-LC retention time was 548 s.
Regarding `COC(=O)CCc1sc(Nc2ccc(OC)cc2)nc1-c1ccc(OC)cc1`, the RP-LC retention time worked out at 909 s.
`O=C(Cn1c(=O)c2cccn2c2ccc(F)cc21)NC1CCCC1` gave an RP-LC retention time of 800 s.
Compound `O=C(Nc1cccc(F)c1)N1CCC(n2c(-c3ccco3)nc3cccnc32)C1` (stereo unspecified) came in with an RP-LC retention time of 767 s.
The compound `CCn1ccc2sc(C)c(C(=O)NCC(C)C)c2c1=O` gave an RP-LC retention time of 747 s.
Then `c1ccc(-c2n[nH]c(-c3ccccn3)n2)nc1`, with 645 s; and `Cc1cc(F)ccc1NS(=O)(=O)c1cc2n(c1)CCN(CC(C)C)C2=O`, with 828 s.
In turn, `Cc1ccc(Cl)c(NC(=O)Cc2csc(C)n2)c1` came in with an RP-LC retention time of 687 s.
`CC(C)CC(NC(=O)OCc1ccccc1)C(=O)NC(Cc1ccccc1)C(=O)CCl` (stereo unspecified) yielded an RP-LC retention time of 1010 s.
With `Cc1ccccc1Nc1c(-c2ccc(N3CCOCC3)cc2)nc2cccc(C)n12`, the RP-LC retention time stood at 702 s.
`CCN(CC)C(=O)N1CC(n2cc(C(=O)N3CCCC3)nn2)C1` came in with an RP-LC retention time of 646 s.
Then `CC(C)NC(=O)C1CCN(c2cncnc2N2CCOCC2)CC1`, with 570 s.
With `Cc1noc2nc(C)n(CC(=O)Nc3ccc(F)c(F)c3)c(=O)c12`, the RP-LC retention time came out at 790 s.
The value for `COc1nc2ccccc2nc1N1CCCC(C(=O)N2CCN(c3ccccc3F)CC2)C1` (stereo unspecified) was 1240 s; that for `COc1ccc(-c2csc(NC(=O)CS(=O)(=O)c3ccc(Cl)cc3)n2)cc1C` was 1080 s; that for `c1cc(CN2CCC(Oc3nccnc3N3CCOCC3)C2)ccn1` (stereo unspecified) was 546 s.
Then `CSc1cccc(NC(=O)c2c[nH]c3ncccc23)c1`, with 752 s; and `COC(=O)c1c(C)[nH]c(C(=O)N2CCC(CC(=O)NCCC(C)N3CCCCCC3)CC2)c1C` (stereo unspecified), with 604 s; and `O=C(c1ccc(S(=O)(=O)c2ccccc2)nc1)N1CCN(C2CCCCC2)CC1`, with 566 s.
With `CCN1CCCC1CNC(=O)CN1C(=O)CCn2nc(-c3cn(C)c4ccccc34)cc21` (stereo unspecified), the RP-LC retention time is 571 s.
The compound `Cc1ccc(-c2nnc(-c3ccc(Br)cc3)o2)cc1S(=O)(=O)N1CCCC1` had an RP-LC retention time of 1190 s.
Regarding `CCOc1ccc(NS(=O)(=O)c2ccc3c(c2)CCCC(=O)N3)cc1`, the RP-LC retention time amounted to 709 s.
Compound `CC(C)CN1C(=O)c2cccn2CC1C(=O)N1CCCC1` (stereo unspecified) gave an RP-LC retention time of 674 s.
Compound `O=C(Nc1ccc(F)cc1)NC1CCN(c2ccc(F)cc2)C1=O` (stereo unspecified) had an RP-LC retention time of 783 s.
For `Cc1ccc(C(=O)COC(=O)c2ccc3nc(C)c(C)nc3c2)cc1`, the RP-LC retention time is 965 s.
Compound `Nc1ccc(Oc2ccc(N)c([N+](=O)[O-])c2)cc1[N+](=O)[O-]` displayed an RP-LC retention time of 899 s.
In turn, `CCOC(=O)c1cc(C)nc2c1c(=O)n(Cc1cccc(F)c1)c(=O)n2C` returned an RP-LC retention time of 1010 s.
The value for `CC(C)N1C(=O)c2cccnc2Sc2cc(C(=O)NC3CCCC3)ccc21` was 812 s; that for `CCNC(=O)c1nc(C(=O)NCc2ccc(F)cc2F)cs1` was 780 s; that for `CC(C)N1CCn2cc(S(=O)(=O)NCc3ccc(F)cc3Cl)cc2C1=O` was 788 s.
In turn, `COC(=O)CCNC(=O)C1c2ccccc2C(=O)N(C2CCCC2)C12CCCCC2` (stereo unspecified) returned an RP-LC retention time of 903 s.
In the case of `COc1ccc(CCNc2ncnc(N)c2[N+](=O)[O-])cc1OC`, the RP-LC retention time was 660 s.
For the compound `Cc1ccc(CNC(=O)C2(C)CN(S(C)(=O)=O)CC(=O)N2c2ccc(C)cc2C)cc1` (stereo unspecified), the RP-LC retention time worked out at 864 s.
In turn, `Cc1c(C(=O)NCCCN2CCCCC2)oc2ccc3c(c12)C(O)CC(C)(C)O3` (stereo unspecified) registered an RP-LC retention time of 631 s.
The value for `CCOC(=O)c1noc2ncnc(Nc3ccc(F)cc3F)c12` was 799 s.
With `CCCNc1cc(N2CCC(CCC(=O)Nc3cc(C)ccc3C)CC2)ncn1`, the RP-LC retention time is 608 s.
The compound `Cc1ccc(S(=O)(=O)N2CCC(c3nc(C(=O)N4CCOCC4)c(C)o3)CC2)cc1` displayed an RP-LC retention time of 824 s.
The value for `CCOc1ccc(NS(=O)(=O)c2cc3c(s2)CCN(C(=O)C2CCC2)C3)cc1` was 896 s.
Take `CNc1nc(Nc2ccccc2C)nc2ccccc12`: the RP-LC retention time stood at 664 s.
For `CCCNC(=O)C1Cn2cccc2C(=O)N1` (stereo unspecified), the RP-LC retention time stood at 581 s.
Compound `CC(C)(Oc1ccc(Cl)cc1)C(=O)NCCS(=O)(=O)N1CCc2ccccc2C1` yielded an RP-LC retention time of 1000 s.
For the compound `COc1ccccc1N1CCN(CCN(C(=O)c2ccc(F)cc2)c2ccccn2)CC1`, the RP-LC retention time came out at 792 s.
The value for `O=C(Nc1ccc(F)cc1Cl)c1c(O)c2cccnc2n(-c2ccc(F)cc2)c1=O` was 1300 s; that for `COc1ccc2nc(N3CC(C(=O)N4CCc5cc(OC)c(OC)cc5C4)C3)sc2c1` was 661 s.
Turning to `COc1ccc(N2CCN(Cc3nc4nc(C)cc(N5CCCCC5)n4n3)CC2)cc1`, the RP-LC retention time came out at 660 s.
Consider `CCN(CC)CCN1c2ccccc2Sc2ccc3ccccc3c21`, for which the RP-LC retention time is 893 s.
The value for `COc1cccc2cc(C(=O)Nc3nc4c(s3)CN(S(=O)(=O)C3CC3)CC4)oc12` was 811 s; that for `CN(C)c1ncccc1C(=O)Nc1ccccc1Cl` was 716 s.
Then `O=C(NCc1cccs1)c1ccc2ncnc(N3CCCCC3)c2c1`, with 644 s.
Then `CCOc1ccc(-c2noc(CN3C(=O)COc4ccccc43)n2)cc1`, with 1030 s.
In turn, `Cc1oc(-c2[nH]ncc2C(=O)N2CCOCC2)cc1S(=O)(=O)Nc1ccc(F)cc1` came in with an RP-LC retention time of 669 s.
As for `CC(O)(CNC(=O)c1cnc2ccccc2n1)c1ccccc1` (stereo unspecified), the RP-LC retention time was determined as 734 s.
The value for `CCOc1ccc(NC(=O)C2CCCN(c3ncnc4c3nc3n4CCCCC3)C2)cc1` (stereo unspecified) was 732 s.
`CCNC(=O)c1ccc(-c2nc3cc(NS(=O)(=O)c4cccs4)ccc3n2C)cc1` yielded an RP-LC retention time of 630 s.
As to `CCCS(=O)(=O)c1nc2ccc(NS(=O)(=O)c3ccc(F)c(C)c3)cc2s1`, the RP-LC retention time was 983 s.
Compound `CCCn1c(CN2CCOCC2)nc2cc(NC(=O)CC(C)C)ccc21` showed an RP-LC retention time of 633 s.
With `Cc1cccc(NC(=O)N2CCC(CC(=O)N3CCCCC3)CC2)c1C`, the RP-LC retention time amounted to 751 s.
Turning to `Cc1cc(C)cc(OCC(=O)N(Cc2ccc(Br)o2)C2CCS(=O)(=O)C2)c1` (stereo unspecified), the RP-LC retention time amounted to 966 s.
Turning to `O=S(=O)(c1ccccc1F)N1CCC2(CCN(c3cccnc3)C2)C1` (stereo unspecified), the RP-LC retention time worked out at 644 s.
The value for `O=C(CCC1CCCN(C(=O)Nc2ccc(Cl)cc2)C1)NCc1ccccc1Cl` (stereo unspecified) was 939 s; that for `O=S(=O)(Cc1ccccc1)N1CCC(Cc2nc(-c3cccnc3)n[nH]2)C1` (stereo unspecified) was 628 s.
